Assay results from US11352604B2, “Method of making cardiomyocytes from human pluripotent cells” (Wisconsin Alumni Research Foundation, priority 2016, dated 2022).

Tested on: hPSC-CMs
Assay: Bottom-up label-free quantitative proteomics, day 30 hPSC-CMs from pI:C-treated vs untreated progenitors
Assay type: cell-based, human
Method: Frozen CM pellets from day 30 in the H9 cTnT-GFP reporter cell line with or without pI:C treatment were washed with Ca^2+-free DPBS and centrifuged at 10,000 g for 10 min and the wash solvent was removed. 10 μl of 4 M urea, 0.5 M ammonium bicarbonate, 1 mM DTT, 10 mM L-methionine was added to the each pellet, and the pellets were vortexed and sonicated for 5 min, followed by incubation with shaking at 50° C. for 10 min. ProteaseMax™ surfactant was added to a final concentration of 0.04% and the pellets were vortexed and incubated at 37° C. for 10 min. 30 μl of water was added to the pellets, and the pellets were incubated at 80° C. for 20 min. After centrifugation at 16,000 g for 10 min, the supernatant was collected for Bradford assay to determine protein concentration. All samples were diluted to 800 ng/μl using 1 M urea and 125 mM ammonium bicarbonate, and 50 μl of the extract was reduced with 10 mM DTT for 30 min at 37° C., followed by alkylation with 25 mM Iodoacetamide for 30 min at room temperature in dark. The pH of the samples were tested to make sure the pH was between 7-8 and Trypsin Gold (Promega®) was added to a final trypsin to substrate ratio of 1:50 and incubated at 37° C. for overnight (16 hrs). Acetic acid was added to a final concentration of 5% (pH˜3) and the samples were centrifuged at 16,000 g for 30 min prior to LC-MS analysis.
Label-free quantitative proteomics analysis was performed using a high-resolution q-TOF mass spectrometer (Impact II, Bruker Daltonics). 3.6 μg of the protein digest were injected to a C18 (New Objective) trapping column for desalting at a flow rate of […] for 5 minutes. The peptides were separated on a 250 mm PicoFrit capillary column packed with 1.9 μm, 175 A Hypersil Gold aQ C18 particles (New Objective) at a flow rate of 300 nl/min by a gradient of 5-45% mobile phase B (0.1% formic acid in acetonitrile) (mobile phase A: 0.1% formic acid in water). The capillary column tip was customized to fit into the CaptiveSpray nanoESI source (Bruker Daltonics) for direct delivery of samples to the mass spectrometer. The most abundant 30 ions were selected for fragmentation by tandem MS (MS/MS) with an active (dynamic) exclusion time of 45 sec. The control group with and without pI:C treatment were analyzed with 5 and 6, respectively, biological replicates. Each sample was analyzed with 3 injection replicates. Protein identification and quantification were performed using the MaxQuant v1.5.7. Proteins were considered identified when at least 1 unique peptide was identified in at least 2 of the biological replicates. Label-free protein quantification was performed by first normalizing the intensity of the proteins (measured by both unique and razer peptides) to the median intensity of the same dataset, and the maximum and minimum of all the non-zero values (if more than 5 values are non-zero) were removed prior to averaging the datasets from the same group. […] Protein-protein interaction analysis was performed using the STRING database.

[1] = p<0.05 and >50% change, about 2,600 proteins detected

For polyinosinic-polycytidylic acid [pI:C], the “number of proteins significantly downregulated” value [1] was 100 proteins, the “number of proteins significantly upregulated” value [1] was 168 proteins and the Fold change (protein ABHD10) was 2.205. For the same substance, the Fold change (protein ACSF2) was 1.971, the Fold change (protein AGK) was 2.084 and the Fold change (protein AIFM1) was 2.224. The Fold change (protein AK4) was 0.122, the Fold change (protein AKAP12) was 0.2108 and the Fold change (protein ALDH18A1) was 0.259. For the same substance, the Fold change (protein ARL6IP1) was 0.2711, the Fold change (protein ATP5F1) was 3.556 and the Fold change (protein ATP6V1F) was 0.284. The Fold change (protein BMP1) was 2.714, the Fold change (protein C5orf24) was 0.2927 and the Fold change (protein CALD1) was 0.3099. It also gave a Fold change (protein CAPZA1) of 0.3292, a Fold change (protein CBWD1) of 0.3341 and a Fold change (protein CDC37) of 0.3347. The Fold change (protein CDK9) was 1.954, the Fold change (protein CDKN1B) was 0.3393 and the Fold change (protein CFC1, CFC1B) was 2.61. For the same substance, the Fold change (protein CISD1) was 6.047, the Fold change (protein CLNS1A) was 0.3492 and the Fold change (protein CLPX) was 3.1174. It also gave a Fold change (protein COL1A2) of 0.3554, a Fold change (protein COL2A1) of 4.221 and a Fold change (protein COL3A1) of 0.3719. It also gave a Fold change (protein COL18A1) of 0.3541, a Fold change (protein CPS1) of 0.3857 and a Fold change (protein CRLF3) of 0.3949. For the same substance, the Fold change (protein CYB5R3) was 2.279, the Fold change (protein DBT) was 71.68 and the Fold change (protein DCXR) was 1.952. The Fold change (protein DKC1) was 0.3962, the Fold change (protein DSG2) was 0.3991 and the Fold change (protein DYNLL1) was 0.407. For the same substance, the Fold change (protein EDC4) was 0.4111, the Fold change (protein EEF1B2) was 0.416 and the Fold change (protein EIF3A) was 0.4235. The Fold change (protein EIF3K) was 0.4335, the Fold change (protein ELAC2) was 0.4539 and the Fold change (protein EMC1) was 3.674. It also gave a Fold change (protein EPN1) of 2.525, a Fold change (protein EPS15L1) of 2.414 and a Fold change (protein ERLIN2) of 2.026. It also gave a Fold change (protein EXOSC6) of 0.4623, a Fold change (protein FABP5) of 0.4749 and a Fold change (protein FLNA) of 0.4757. For the same substance, the Fold change (protein FLNB) was 0.4767, the Fold change (protein FUBP1) was 0.484 and the Fold change (protein H6PD) was 0.4845. It also gave a Fold change (protein HEATR6) of 0.4857, a Fold change (protein HEBP2) of 0.4867 and a Fold change (protein HIST1H2AJ) of 4.696. It also gave a Fold change (protein HMGCS1) of 0.5003, a Fold change (protein HSDL1) of 2.135 and a Fold change (protein IMMT) of 2.059. The Fold change (protein IQGAP1) was 0.5083, the Fold change (protein ISOC1) was 0.5114 and the Fold change (protein ITM2B) was 2.861. It also gave a Fold change (protein KLC4) of 0.5119, a Fold change (protein KRT18, KRT35) of 0.5128 and a Fold change (protein KRT19) of 0.5211. The Fold change (protein LAMA1) was 2.03, the Fold change (protein LGALS1) was 0.5211 and the Fold change (protein LMCD1) was 0.5226. The Fold change (protein LNP) was 2.183, the Fold change (protein LRRC59) was 0.5235 and the Fold change (protein MAP2K4) was 2.414. The Fold change (protein MEST) was 0.5333, the Fold change (protein MRPS22) was 1.976 and the Fold change (protein MT-ATP8) was 2.244. The Fold change (protein MTCH2) was 1.99, the Fold change (protein MYL6) was 0.534 and the Fold change (protein MYO9B) was 2.112. It also gave a Fold change (protein NDUFA4) of 2.128, a Fold change (protein NGLY1) of 0.5359 and a Fold change (protein NIT2) of 0.5435. The Fold change (protein NNT) was 1.994, the Fold change (protein NSDHL) was 2.081 and the Fold change (protein NUP85) was 2.249. For the same substance, the Fold change (protein OGFR) was 0.5517, the Fold change (protein ORF1) was 2.257 and the Fold change (protein P4HB) was 0.5531. The Fold change (protein PCCA) was 2.032, the Fold change (protein PDLIM1) was 0.5561 and the Fold change (protein PDLIM3) was 0.557. The Fold change (protein PHB2) was 1.952, the Fold change (protein RAC1) was 2.128 and the Fold change (protein RAD54L2) was 4.857. The Fold change (protein RRAS) was 3.82, the Fold change (protein SLC25A1) was 2.333 and the Fold change (protein SLC25A3) was 2.195. It also gave a Fold change (protein SLC25A12) of 1.968, a Fold change (protein SMG7) of 3.817 and a Fold change (protein THBS1, THBS3, THBS2) of 3.483. It also gave a Fold change (protein TMEM65) of 2.197, a Fold change (protein UACA) of 1.958 and a Fold change (protein UBE4A) of 5.484. It also gave a Fold change (protein UQCRB) of 3.665, a Fold change (protein USMG5) of 2.085 and a Fold change (protein XPO7) of 2.231.
